Counter-ions that a name gives are not always drawn.
Tests used:
[1] = test system: MeWo, SK-Mel-2, SK-Mel-334.2, SK-Mel-239 human melanoma cells; experiment: subcutaneous human melanoma tumor growth in immunocompromised mice; format: in vivo, mouse
[2] = test system: endothelial cells (HUVEC); experiment: endothelial migration and chemotaxis assays; format: cell-based, human; conditions: cancer cell-free system
Procedure: Serum-starved HUVEC's were pulsed with Cell Tracker Red CMTPX dye for 45 minutes and seeded into HTS Fluoroblock trans-well inserts at a concentration of 1×10^5 HUVEC's in 0.5 mL starvation media per each insert. The assay was allowed to proceed for 16-18 hours at 37° C., and the inserts were processed and analyzed as described above (See Matrigel Invasion Assay).
HUVEC's were serum-starved in 0.2% FBS EGM-2 media for 16 hours and labeled with Cell Tracker Red CMTPX dye for 45 minutes. Meanwhile, the indicated amounts (1-5 μg) of recombinant human ApoE3 or BSA were mixed with 250 μL of matrigel (356231, BD Biosciences) and allowed to solidify at the bottom of a 24-well plate for 30 min. 250 μL of HUVEC EGM-2 media containing 0.2% FBS was then added to each matrigel-coated well, and […] HTS Fluoroblock inserts were fitted into each well. 1×10^5 HUVEC's, resuspended in 0.5 mL of starvation media, were seeded into each insert and allowed to migrate along the matrigel gradient for 16-18 hours at 37° C. Upon completion of the assay, the inserts were mounted on slides and analyzed as described above (See Matrigel Invasion Assay).

[3] = test system: VEGF-induced endothelial recruitment; experiment: in vivo matrigel plug assay; design: species or system mouse; conditions: VEGF 400 ng/mL + 10 μg/mL
Procedure: 10 μg/mL recombinant human ApoE3 (4696, BioVision), 10 μg/mL BSA (A2153, Sigma Aldrich), or 400 ng/ml VEGF were mixed with matrigel (356231, BD Biosciences) as indicated. 400 μL of matrigel containing the indicated recombinant proteins were injected subcutaneously just above the ventral flank of immunocompromised NOD-SCID mice. Plugs were extracted on day 3 post-injection and fixed in 4% paraformaldehyde for 48 hours. Plugs were then paraffin-embedded and sectioned at 5-μm-thick increments. Plug cross-sectional sections were immunohistochemically stained using a primary antibody against the mouse endothelial antigen MECA-32 (Developmental Studies Hybridoma Bank, The University of Iowa, IA), detected by peroxidase-conjugated secondary antibody, and subsequently visualized by DAB oxidization. To quantify the extent of endothelial cell invasion into each matrigel plug, the number of endothelial cells was counted in 4-5 random fields for each plug, and the average number of endothelial cells per given plug area was calculated.

Compound	overall survival time of tumor-bearing mice ([1]; B16F10, MeWo, SK-Mel-334.2 tumors, chow 100 mg/kg)	suppression of growth of SK-Mel-239 vemurafenib-resistant line ([1]; diet 100 mg/kg) [%]	survival of mice bearing vemurafenib-resistant melanoma burden ([1]; diet 100 mg/kg)	tumor growth inhibition, MeWo ([1]; oral administration) [%]	tumor growth inhibition, SK-Mel-2 ([1]; oral administration) [%]	tumor growth inhibition, SK-Mel-334.2 ([1]; oral administration) [%]	growth of in vivo-derived DTIC-resistant MeWo tumors ([1]; oral, diet 100 mg/kg)	endothelial migration in trans-well and gradient-based chemotactic assay [2]	suppression of VEGF-induced endothelial recruitment into subcutaneous matrigel plugs [3]
O=C(O)Cc1cccc(OCCCN(Cc2cccc(C(F)(F)F)c2Cl)CC(c2ccccc2)c2ccccc2)c1 [GW3965 2, 3-[3-[N-(2-Chloro-3-trifluoromethylbenzyl)-(2,2-diphenylethyl)amino]propyloxy] phenylacetic acid hydrochloride]	substantially prolonged	72	significantly prolonged	70	49	73	strongly inhibited		
recombinant ApoE3: recombinant human ApoE3 (4696, BioVision)								sufficient to inhibit	greater than 40 fold

Reference: patent US10543183B2, “Treatment and diagnosis of melanoma” (The Rockefeller University, priority 2012, dated 2020)
